{"source": "patent US11505548B2", "about": "“Heterocyclic compounds and their use for treatment of helminthic infections and diseases” (Celgene Corporation, priority 2019, dated 2022)", "test_system": "Onchocerca gutturosa Adult Male Worms", "assay": "Onchocerciasis in vitro screening model, worm motility score", "type": "cell-based", "settings": "read-out: O. gutturosa activity level (IC50 or MED)", "key": {"[1]": {"settings": "in vitro, Onchocerca gutturosa adult male worms, class A/B/C"}, "[2]": {"settings": "Onchocerca gutturosa, Table 1 O. gutturosa, levels A/B/C, motility or MTT readout not specified"}}, "note": "Read-outs that look alike come from different tables or passages of the source."}
{"smiles": "CC(C)Oc1cccnc1-c1nsc(Nc2ncc(C(F)(F)F)cc2C(=O)N(C)C)n1", "note": "[Compound 281, 2-(3-(3-isoprop-oxypyridin-2-yl)-1,2,4-thiadiazol-5-ylamino)-N,N-dimethyl-5-(trifluoromethyl) nicotinamide]", "values": [{"measurement": "IC50", "setting": "[1]", "result": "500 to 5000", "unit": "nM"}]}
{"smiles": "CN1CCC(Oc2ccc(-c3nsc(Nc4ncccc4N(C)C)n3)nc2)CC1", "note": "[Compound 59, N3,N3-dimethyl-N2-(3-(5-(1-methylpiperidin-4-yloxy)pyridin-2-yl)-1,2,4-thiadiazol-5-yl)pyridine-2,3-diamine]", "values": [{"measurement": "IC50", "setting": "[2]", "result": "500 to 5000", "unit": "nM"}]}
{"smiles": "Cc1cccnc1Nc1nc(-c2ccc(OC3CCN(C4CC4)C[C@@H]3F)cn2)ns1", "note": "(stereo partly drawn) [Compound 92, 3-(5-((3S)-1-cyclopropyl-3-fluoro-piperidin-4-yloxy)pyridin-2-yl)-N-(3-methylpyridin-2-yl)-1,2,4-thiadiazol-5-amine]", "values": [{"measurement": "IC50", "setting": "[2]", "result": "< 200", "unit": "nM"}]}
{"smiles": "CC(=O)N(C)c1nccnc1Nc1nc(-c2ccc(OC(C)C)cn2)ns1", "note": "[Compound 313, N-(3-(3-(5-isopropoxypyridin-2-yl)-1,2,4-thiadiazol-5-ylamino)pyrazin-2-yl)-N-methylacetamide]", "values": [{"measurement": "IC50", "setting": "[1]", "result": "500 to 5000", "unit": "nM"}]}
{"smiles": "COc1cccnc1Nc1nc(-c2ccc(OC(C)C)cn2)ns1", "note": "[Compound 81, 3-(5-isopropoxy-pyridin-2-yl)-N-(3-methoxy-pyridin-2-yl)-1,2,4-thiadiazol-5-amine]", "values": [{"measurement": "IC50", "setting": "[2]", "result": "< 200", "unit": "nM"}]}
{"smiles": "Cc1cccnc1Nc1nc(-c2ccc(O[C@@H]3CCN(C4CC4)C[C@H]3F)cn2)ns1", "note": "[Compound 91, 3-(5-((3R,4R)-1-cyclopropyl-3-fluoro-piperidin-4-yloxy)pyridin-2-yl)-N-(3-methylpyridin-2-yl)-1,2,4-thiadiazol-5-amine]", "values": [{"measurement": "IC50", "setting": "[2]", "result": "< 200", "unit": "nM"}]}
{"smiles": "CC(C)c1cccnc1Nc1nc(-c2ccc(OC3CCN(C4CC4)CC3(F)F)cn2)ns1", "note": "(stereo not drawn) [Compound 87, 3-(5-(1-cyclo-propyl-3,3-difluoro-piperidin-4-yloxy)pyridin-2-yl)-N-(3-isopropylpyridin-2-yl)-1,2,4-thiadiazol-5-amine]", "values": [{"measurement": "IC50", "setting": "[2]", "result": "< 200", "unit": "nM"}]}
{"smiles": "CC(=O)N(C)c1cnc(Nc2nc(-c3cc(OC(C)C)ccn3)ns2)c(C(F)(F)F)c1", "note": "[Compound 285, N-(6-(3-(4-isopropoxy-pyridin-2-yl)-1,2,4-thiadiazol-5-ylamino)-5-(trifluoromethyl)pyridin-3-yl)-N-methylacetamide]", "values": [{"measurement": "IC50", "setting": "[1]", "result": "500 to 5000", "unit": "nM"}]}
{"smiles": "CC(C)Oc1ccnc(-c2nnc(Nc3ccc(C(C)C)cn3)s2)c1", "note": "[Compound 232, 5-(4-isopropoxy-pyridin-2-yl)-N-(5-isopropyl-pyridin-2-yl)-1,3,4-thiadiazol-2-amine]", "values": [{"measurement": "IC50", "setting": "[1]", "result": "500 to 5000", "unit": "nM"}]}
{"smiles": "CC(=O)N(C)c1cnc(-c2nsc(Nc3ncccc3C)n2)cc1C", "note": "[Compound 270, N-methyl-N-(4-methyl-6-(5-(3-methylpyridin-2-ylamino)-1,2,4-thiadiazol-3-yl)pyridin-3-yl)acetamide]", "values": [{"measurement": "IC50", "setting": "[1]", "result": "500 to 5000", "unit": "nM"}]}
{"smiles": "CN1CCC(Oc2ccc(-c3nsc(Nc4ncccc4F)n3)nc2)CC1", "note": "[Compound 30, N-(3-fluoro-pyridin-2-yl)-3-(5-(1-methyl-piperidin-4-yloxy)pyridin-2-yl)-1,2,4-thiadiazol-5-amine]", "values": [{"measurement": "IC50", "setting": "[2]", "result": "< 200", "unit": "nM"}]}
{"smiles": "CC(C)Oc1cnc(-c2nsc(Nc3ncccc3N(C)C(=O)C3CC3)n2)cc1C(F)(F)F", "note": "[Compound 186, N-(2-(3-(5-isopropoxy-4-(trifluoro-methyl)pyridin-2-yl)-1,2,4-thiadiazol-5-ylamino)pyridin-3-yl)-N-methylcyclo-propanecarbox-amide]", "values": [{"measurement": "IC50", "setting": "[2]", "result": "500 to 5000", "unit": "nM"}]}
{"smiles": "CN(C)c1cccnc1Nc1nc(-c2ccc(OC3CCN(C4CC4)CC3(F)F)cn2)ns1", "note": "(stereo not drawn) [Compound 123, N2-(3-(5-(1-cyclopropyl-3,3-difluoro-piperidin-4-yloxy)pyridin-2-yl)-1,2,4-thiadiazol-5-yl)-N3,N3-dimethyl-pyridine-2,3-diamine]", "values": [{"measurement": "IC50", "setting": "[2]", "result": "< 200", "unit": "nM"}]}
{"smiles": "Cc1cccnc1N(C)c1nc(-c2ccc(OC(C)C)cn2)ns1", "note": "[Compound 98, 3-(5-isopropoxy-pyridin-2-yl)-N-methyl-N-(3-methylpyridin-2-yl)-1,2,4-thiadiazol-5-amine]", "values": [{"measurement": "IC50", "setting": "[2]", "result": "200 to 500", "unit": "nM"}]}
{"smiles": "CN1CCC(Oc2ccc(Nc3nc(-c4ccccn4)ns3)nc2)CC1", "note": "[Compound 11, N-(5-(1-methyl-piperidin-4-yloxy)pyridin-2-yl)-3-(pyridin-2-yl)-1,2,4-thiadiazol-5-amine]", "values": [{"measurement": "IC50", "setting": "[2]", "result": "500 to 5000", "unit": "nM"}]}
{"smiles": "COc1ccc(Nc2nc(-c3ccccn3)ns2)nc1", "note": "[Cmpd 2, N-(5-methoxy-pyridin-2-yl)-3-(pyridin-2-yl)-1,2,4-thiadiazol-5-amine]", "values": [{"measurement": "IC50", "setting": "[2]", "result": "500 to 5000", "unit": "nM"}]}
{"smiles": "FC(F)(F)c1ccc(Nc2nc(-c3ccccn3)ns2)nc1", "note": "[Cmpd 1]", "values": [{"measurement": "IC50", "setting": "[2]", "result": "< 200", "unit": "nM"}]}
{"smiles": "CC(C)Oc1ccc(-c2nsc(Nc3ncccc3N3CCCC3=O)n2)nc1", "note": "[Compound 178, 1-(2-(3-(5-isopropoxy-pyridin-2-yl)-1,2,4-thiadiazol-5-ylamino)pyridin-3-yl)pyrrolidin-2-one]", "values": [{"measurement": "IC50", "setting": "[2]", "result": "500 to 5000", "unit": "nM"}]}
{"smiles": "c1ccc(-c2nsc(Nc3ccc(N4CCOCC4)cn3)n2)nc1", "note": "[Cmpd 5, N-(5-morpholino-pyridin-2-yl)-3-(pyridin-2-yl)-1,2,4-thiadiazol-5-amine]", "values": [{"measurement": "IC50", "setting": "[2]", "result": "500 to 5000", "unit": "nM"}]}
{"smiles": "FC(F)(F)c1cccnc1Nc1nc(-c2cc(C3CC3)ccn2)ns1", "note": "[Compound 84, 3-(4-cyclopropyl-pyridin-2-yl)-N-(3-(trifluoromethyl)pyridin-2-yl)-1,2,4-thiadiazol-5-amine]", "values": [{"measurement": "IC50", "setting": "[2]", "result": "< 200", "unit": "nM"}]}
{"smiles": "CC(=O)N(C)c1cccnc1Nc1nc(-c2ccc(OC3CCN(C(C)C)CC3(F)F)cn2)ns1", "note": "(stereo not drawn) [Compound 203, N-(2-(3-(5-(3,3-difluoro-1-isopropyl-piperidin-4-yloxy)pyridin-2-yl)-1,2,4-thiadiazol-5-ylamino)pyridin-3-yl)-N-methylacetamide]", "values": [{"measurement": "IC50", "setting": "[1]", "result": "500 to 5000", "unit": "nM"}]}
{"smiles": "CC(=O)N1CCC(Oc2ccc(-c3nsc(Nc4ncccc4C)n3)nc2)CC1", "note": "[Compound 266, 1-(4-(6-(5-(3-methyl-pyridin-2-ylamino)-1,2,4-thiadiazol-3-yl)pyridin-3-yloxy)piperidin-1-yl)ethanone]", "values": [{"measurement": "IC50", "setting": "[1]", "result": "500 to 5000", "unit": "nM"}]}
{"smiles": "Cc1cccnc1Nc1nc(-c2cc(OC(C)C)c(C(F)(F)F)cn2)ns1", "note": "[Compound 152, 3-(4-isoprop-oxy-5-(trifluoromethyl)pyridin-2-yl)-N-(3-methylpyridin-2-yl)-1,2,4-thia-diazol-5-amine]", "values": [{"measurement": "IC50", "setting": "[2]", "result": "200 to 500", "unit": "nM"}]}
{"smiles": "CC(C)Oc1ccnc(-c2nc(Nc3cc(C(F)(F)F)c(C(C)C)cn3)nn2C)c1", "note": "[Compound 146, N-(5-(4-isoprop-oxypyridin-2-yl)-1-methyl-1H-1,2,4-triazol-3-yl)-5-isopropyl-4-(trifluoro-methyl) pyridin-2-amine]", "values": [{"measurement": "IC50", "setting": "[2]", "result": "500 to 5000", "unit": "nM"}]}
{"smiles": "CC(=O)N(C)c1cnc(Nc2nc(-c3cc4c(cn3)N(C(C)C)CC4)ns2)c(C(F)(F)F)c1", "note": "[Compound 299, N-(6-(3-(1-isopropyl-2,3-dihydro-1H-pyrrolo[2,3-c]pyridin-5-yl)-1,2,4-thiadiazol-5-ylamino)-5-(trifluoromethyl)pyridin-3-yl)-N-methylacetamide]", "values": [{"measurement": "IC50", "setting": "[1]", "result": "< 200", "unit": "nM"}]}
{"smiles": "CN(C)c1cccnc1Nc1nc(-c2ccc(OCC3CC3)cn2)ns1", "note": "[Compound 118, N2-(3-(5-(cyclopropyl-methoxy)pyridin-2-yl)-1,2,4-thiadiazol-5-yl)-N3,N3-dimethyl-pyridine-2,3-diamine]", "values": [{"measurement": "IC50", "setting": "[2]", "result": "< 200", "unit": "nM"}]}
{"smiles": "CN1CC(S(=O)(=O)c2ccc(-c3nsc(Nc4ncccc4N(C)C)n3)nc2)C1", "note": "[Compound 141, N3,N3-dimethyl-N2-(3-(5-(1-methylazetidin-3-ylsulfonyl)pyridin-2-yl)-1,2,4-thiadiazol-5-yl)pyridine-2,3-diamine]", "values": [{"measurement": "IC50", "setting": "[2]", "result": "500 to 5000", "unit": "nM"}]}
{"smiles": "CNc1cccnc1Nc1nc(-c2ccc(OC3CCN(C4CC4)CC3(F)F)cn2)ns1", "note": "(stereo not drawn) [Compound 122, N2-(3-(5-(1-cyclopropyl-3,3-difluoropiperidin-4-yloxy)pyridin-2-yl)-1,2,4-thiadiazol-5-yl)-N3-methyl-pyridine-2,3-diamine]", "values": [{"measurement": "IC50", "setting": "[2]", "result": "200 to 500", "unit": "nM"}]}
{"smiles": "c1ccc(-c2ccnc(Nc3nc(-c4ccccn4)ns3)c2)cc1", "note": "[Compound 237, N-(4-phenyl-pyridin-2-yl)-3-(pyridin-2-yl)-1,2,4-thiadiazol-5-amine]", "values": [{"measurement": "IC50", "setting": "[1]", "result": "500 to 5000", "unit": "nM"}]}
{"smiles": "CC(=O)N(C)c1nccnc1Nc1nc(-c2cc3c(cn2)N(C(C)C)CC3)ns1", "note": "[Compound 309, N-(3-(3-(1-isopropyl-2,3-dihydro-1H-pyrrolo[2,3-c]pyridin-5-yl)-1,2,4-thiadiazol-5-ylamino)pyrazin-2-yl)-N-methylacetamide]", "values": [{"measurement": "IC50", "setting": "[1]", "result": "< 200", "unit": "nM"}]}
{"smiles": "COc1cccnc1Nc1nc(-c2ccc(OC3CC(F)(F)C3)cn2)ns1", "note": "[Compound 137, 3-(5-(3,3-difluorocyclo-butoxy)pyridin-2-yl)-N-(3-methoxypyridin-2-yl)-1,2,4-thiadiazol-5-amine]", "values": [{"measurement": "IC50", "setting": "[2]", "result": "500 to 5000", "unit": "nM"}]}
{"smiles": "CC(=O)N(C)c1cc(C(F)(F)F)cnc1Nc1nc(-c2cc3c(cn2)N(C(C)C)CC3)ns1", "note": "[Compound 273, N-(2-(3-(1-isopropyl-2,3-dihydro-1H-pyrrolo[2,3-c]pyridin-5-yl)-1,2,4-thiadiazol-5-ylamino)-5-(trifluoromethyl)pyridin-3-yl)-N-methylacetamide]", "values": [{"measurement": "IC50", "setting": "[1]", "result": "200 to 500", "unit": "nM"}]}
{"smiles": "COC(=O)c1cc(-c2nsc(Nc3ncccc3C(C)C)n2)ncc1OC(C)C", "note": "[Compound 197, methyl 5-isopropoxy-2-(5-(3-isopropylpyridin-2-ylamino)-1,2,4-thiadiazol-3-yl)isonicotinate]", "values": [{"measurement": "IC50", "setting": "[2]", "result": "< 200", "unit": "nM"}]}
{"smiles": "Cc1cccnc1Nc1nc(-c2ccc(OC3CCN(CC4CC4)CC3)cn2)ns1", "note": "[Compound 75, 3-(5-(1-(cyclopropyl-methyl)piperidin-4-yloxy)pyridin-2-yl)-N-(3-methylpyridin-2-yl)-1,2,4-thiadiazol-5-amine]", "values": [{"measurement": "IC50", "setting": "[2]", "result": "200 to 500", "unit": "nM"}]}
{"smiles": "CN(C)C(=O)c1cc(C(F)(F)F)cnc1Nc1nc(-c2cc3c(cn2)N(C)C(C)(C)C3)ns1", "note": "[Compound 293, N,N-dimethyl-5-(trifluoromethyl)-2-(3-(1,2,2-trimethyl-2,3-dihydro-1H-pyrrolo[2,3-c]pyridin-5-yl)-1,2,4-thiadiazol-5-ylamino) nicotinamide]", "values": [{"measurement": "IC50", "setting": "[1]", "result": "< 200", "unit": "nM"}]}
{"smiles": "CC(C)c1cccnc1Nc1nc(-c2ccc(O[C@@H]3CCN(C4CC4)C[C@@H]3F)cn2)ns1", "note": "[Compound 89, 3-(5-((3S,4R)-1-cyclopropyl-3-fluoro-piperidin-4-yloxy)pyridin-2-yl)-N-(3-isopropylpyridin-2-yl)-1,2,4-thiadiazol-5-amine]", "values": [{"measurement": "IC50", "setting": "[2]", "result": "< 200", "unit": "nM"}]}
